Test results as given in ChEMBL document CHEMBL4196104, “Hawaiienols A-D, Highly Oxygenated p-Terphenyls from an Insect-Associated Fungus, Paraconiothyrium hawaiiense” (J Nat Prod, 2018).
Activity calls are given as the source filed them. No cut-off for these calls is given here.

Assays:
Assay type in all cases: functional, cell-based
HCT-116 [1] = experiment: Antiproliferative activity against human HCT116 cells at 50 uM after 24 hrs by CCK-8 assay
T-24 [2] = experiment: Antiproliferative activity against human T24 cells at 50 uM after 24 hrs by CCK-8 assay
MCF7 [3] = experiment: Antiproliferative activity against human MCF7 cells at 50 uM after 24 hrs by CCK-8 assay
A549 [4] = experiment: Antiproliferative activity against human A549 cells at 50 uM after 24 hrs by CCK-8 assay
HeLa [5] = experiment: Antiproliferative activity against human HeLa cells at 50 uM after 24 hrs by CCK-8 assay
SH-SY5Y [6] = experiment: Antiproliferative activity against human SH-SY5Y cells at 50 uM after 24 hrs by CCK-8 assay
A549 [7] = experiment: Antiproliferative activity against human A549 cells after 24 hrs by CCK-8 assay; details: A549, 24 h
HeLa [8] = experiment: Antiproliferative activity against human HeLa cells after 24 hrs by CCK-8 assay
SH-SY5Y [9] = experiment: Antiproliferative activity against human SH-SY5Y cells after 24 hrs by CCK-8 assay
T-24 [10] = experiment: Antiproliferative activity against human T24 cells after 24 hrs by CCK-8 assay; details: T-24, 24 h
HCT-116 [11] = experiment: Antiproliferative activity against human HCT116 cells after 24 hrs by CCK-8 assay; details: HCT-116, 24 h
MCF7 [12] = experiment: Antiproliferative activity against human MCF7 cells after 24 hrs by CCK-8 assay; details: MCF7, 24 h

SMILES | Activity (HCT-116 [1]) | Activity (T-24 [2]) | Activity (MCF7 [3]) | Activity (A549 [4]) | Activity (HeLa [5]) | Activity (SH-SY5Y [6]) | IC50 (A549 [7]) [µM] | IC50 (HeLa [8]) [µM] | IC50 (SH-SY5Y [9]) [µM] | IC50 (T-24 [10]) [µM] | IC50 (HCT-116 [11]) [µM] | IC50 (MCF7 [12]) [µM]
COc1ccc([C@]23O[C@](c4ccc(OC)cc4)([C@@H](O)[C@@H]2O)[C@@H](O)[C@@H]3O)cc1 | inactive | inactive | inactive | inactive | inactive | inactive |  |  |  |  |  | 
COc1ccc([C@]2(O)C(=O)[C@@]3(OC)OC2[C@@H](O)[C@@]3(O)c2ccc(OC)cc2)cc1 | inactive | inactive | inactive | inactive | inactive | inactive |  |  |  |  |  | 
COc1ccc([C@]23O[C@@H]4C2O[C@](OC)([C@H]3O)[C@]4(O)c2ccc(O)cc2)cc1 |  |  |  |  |  |  | 23.1 | 19.7 | 9.3 | 46.6 | 57.1 | 42.9
COc1ccc([C@]2(O)[C@H](O)C(=O)[C@@](O)(c3ccc(OC)cc3)[C@H](O)[C@H]2O)cc1 | inactive | inactive | inactive | inactive | inactive | inactive |  |  |  |  |  | 
